Where two headings read alike, the source gives them in different places.

One test concerns AsPC-1 cells. As to the kind of experiment: Non-anchorage-dependent cell growth inhibition (spheroid 3D culture), AsPC-1. Type of test: cell-based. To be noted: Homo sapiens, ASPC1, 144 h, read-out: AsPC-1 IC50. The method in brief:
(§1)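 Human pancreatic lines (PA-TU-8902 KRAS G12V, AsPC-1 G12D, MIA PaCa-2 G12C) grown as spheroids at 5×10^2 cells/well in low-adhesion round-bottom plates; MIA PaCa-2 in RPMI-1640 with 10% FBS. Compounds added next day (6-9 points, 3 μM to 0.3 nM final) for six days at 37 °C, 5% CO2. CellTiter-Glo luminescence, IC50 by Sigmoid-Emax regression versus DMSO and cell-free controls.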

The test system of the next test is PA-TU-8902 cells. As to the kind of experiment: Non-anchorage-dependent cell growth inhibition (spheroid 3D culture), PA-TU-8902. Format: cell-based, human. To be noted: Homo sapiens, PaTu 8902, 144 h, read-out: PA-TU-8902 IC50. The method in brief:
as §1

The target of the next test is T1, RAS G12V (Homo sapiens, UniProt P01116, G12V).
T1 construct: host or cells: PA-TU-8902 human pancreatic cancer cells
T1 sequence (P01116 1-188 isoform P01116-2 G12V): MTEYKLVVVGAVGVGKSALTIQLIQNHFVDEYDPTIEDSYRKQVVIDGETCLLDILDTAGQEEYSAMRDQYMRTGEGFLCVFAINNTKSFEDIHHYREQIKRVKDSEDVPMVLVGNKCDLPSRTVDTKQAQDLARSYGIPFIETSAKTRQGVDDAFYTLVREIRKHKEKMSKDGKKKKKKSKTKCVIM
As to the kind of experiment: RAS G12V degradation activity, Cell ELISA, PA-TU-8902. Type of test: cell-based. To be noted: PA-TU-8902 cells, 24 hours, 100% = Example compound 17 at 1 μM; read-out: DC50 (RAS G12V 50% degradation value). The method in brief: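 PA-TU-8902 cells (KRAS G12V) treated 24 h at 37 °C with 10 concentrations, 3 μM to 0.1 nM final; fixed, permeabilised, stained with G12V-specific and β-actin antibodies, infrared fluorescence read. Degradation scaled from DMSO (0%) to 1 μM reference degrader (100%), actin-normalised; DC50 by Sigmoid-Emax regression.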
Background: In an ELISA, binding on a coated surface is turned into a signal by an enzyme label.

A further test has as its system MIA PaCa-2 cells. As to the kind of experiment: Non-anchorage-dependent cell growth inhibition (spheroid 3D culture), MIA PaCa-2. Format: cell-based. To be noted: Homo sapiens, MIA PaCa-2, 144 h, read-out: MIA PaCa-2 IC50. A digest of the protocol:
as §1

As usually defined, the IC50 is the concentration needed to halve the response being measured. As usually defined, the DC50 is the concentration at which degradation of the target reaches its halfway point. In the case of `Cc1ncsc1-c1ccc([C@H](CO)NC(=O)[C@@H]2C[C@@H](O)CN2C(=O)[C@H](C(C)C)n2cc(-c3ccc(COc4c(-c5c(C)c(F)cc6[nH]ncc56)c(C5CC5)cc5c(N6CC[C@H]6C(N)=O)nc(OC6CCOCC6)nc45)cc3)nn2)cc1` [Example 35], the half-maximal inhibitory concentration (IC50) with AsPC-1 cells (KRAS G12D mutant-positive, 3D spheroid, six days, CellTiter-Glo 2.0) came out at 10 nM; in the test with PA-TU-8902 cells (KRAS G12V mutant-positive, 3D spheroid, six days, CellTiter-Glo 2.0), 32 nM; in the test on MIA PaCa-2 cells (KRAS G12C mutant-positive, 3D spheroid, six days, CellTiter-Glo 2.0), 5 nM. Moreover, the DC50 at RAS G12V is 23 nM.
On to `CO[C@@H](C)COc1nc(OC2CN(C(=O)NCCN(C)C)C2)c2cc(C3CC3)c(-c3c(C)c(F)cc4[nH]ncc34)c(OCc3ccc(C(=O)N[C@H](C(=O)N4C[C@H](O)C[C@H]4C(=O)N[C@@H](CO)c4ccc(-c5scnc5C)cc4)C(C)C)cc3)c2n1` [Example 40, N-{4-[({(7M)-6-cyclopropyl-4-[(1-{[2-(dimethylamino)ethyl]carbamoyl}azetidin-3-yl)oxy]-7-(6-fluoro-5-methyl-1H-indazol-4-yl)-2-[(2S)-2-methoxypropoxy]quinazolin-8-yl}oxy)methyl]benzoyl}-L-valyl-(4R)-4-hydroxy-N-{(1R)-2-hydroxy-1-[4-(4-methyl-1,3-thiazol-5-yl)phenyl]ethyl}-L-prolinamide], for which the IC50 in the test with AsPC-1 cells came out at 62 nM; in the test with PA-TU-8902 cells it was 100 nM; in the test on MIA PaCa-2 cells, 20 nM. In addition, the half-maximal degradation concentration (DC50) on RAS G12V amounted to 76 nM.
